The target in experiment [1] is T1, GLT8D1 (recombinant secretory glycosyltransferase 8 domain-containing protein 1) (Homo sapiens, UniProt Q68CQ7).
T1 construct: lumenal catalytic domain 52-371; GFP fusion kept; secreted from HEK293-F cells; N-glycosylated; expected mass 67,624 Da
T1 sequence (Q68CQ7 52-371): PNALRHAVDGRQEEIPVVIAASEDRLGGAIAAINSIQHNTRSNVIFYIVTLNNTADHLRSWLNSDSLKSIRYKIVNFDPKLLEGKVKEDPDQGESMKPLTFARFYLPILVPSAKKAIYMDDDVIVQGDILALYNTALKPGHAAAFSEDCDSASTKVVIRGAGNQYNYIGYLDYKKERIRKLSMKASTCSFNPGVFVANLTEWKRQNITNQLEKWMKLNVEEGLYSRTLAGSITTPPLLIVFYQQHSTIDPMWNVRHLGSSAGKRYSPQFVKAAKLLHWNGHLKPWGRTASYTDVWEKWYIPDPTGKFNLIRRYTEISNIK
Nature of the experiment: UDP-Glo transferase assay; product by LC-MS/MS. In kind it is biochemical. The settings on record: acceptor, 20 mM; UDP-Gal donor, 5 mM MnCl2, 50 mM Tris-HCl pH 7.5.

The target in experiment [2] is T1, GLT8D1 (recombinant secretory glycosyltransferase 8 domain-containing protein 1). Nature of the experiment: intrinsic tryptophan fluorescence DSF (nanoDSF). It is filed as binding. The settings on record: 0.1 mM ligand, 1 mM MnCl2, 50 mM Tris-HCl pH 7.5; shift relative to Mn2+ alone. On the technique in general: Differential scanning fluorimetry follows unfolding on heating by fluorescence.

For `CC(=O)N[C@H]1C(O)O[C@H](CO)[C@H](O)[C@@H]1O` (stereo partly drawn) [GalNAc], the “UDP-Glo transferase assay; product by LC-MS/MS” value in experiment [1] was “With UDP-Gal as donor some transferase reaction was detected towards GalNAc and GlcNAc”.
For the compound `O=C(O)[C@H]1O[C@H](OP(=O)(O)OP(=O)(O)OC[C@H]2O[C@@H](n3ccc(=O)[nH]c3=O)[C@H](O)[C@@H]2O)[C@H](O)[C@@H](O)[C@@H]1O` [UDP-GlcA], the ΔTm result in experiment [2] is “+ 4.9 °C”.
Take `CC(=O)N[C@H]1C(O)O[C@H](CO)[C@@H](O)[C@@H]1O` (stereo partly drawn) [GlcNAc]: the “UDP-Glo transferase assay; product by LC-MS/MS” value in experiment [1] was “With UDP-Gal as donor some transferase reaction was detected towards GalNAc and GlcNAc”.
Take `Nc1nc2c(ncn2[C@@H]2O[C@H](COP(=O)(O)OP(=O)(O)O)[C@@H](O)[C@H]2O)c(=O)[nH]1` [GDP]: in experiment [2], the ΔTm entry was “+ 7.7 °C”.
The same measure, in the same setting: to `Nc1ccn([C@@H]2O[C@H](COP(=O)(O)O)[C@@H](O)[C@H]2O)c(=O)n1` [CMP] belongs “+ 1.3 °C”; to `CC(=O)N[C@H]1[C@@H](OP(=O)(O)OP(=O)(O)OC[C@H]2O[C@@H](n3ccc(=O)[nH]c3=O)[C@H](O)[C@@H]2O)O[C@H](CO)[C@@H](O)[C@@H]1O` [UDP-GlcNAc], ~ 2 °C.
Consider `CC(=O)N[C@H]1[C@@H](OP(=O)(O)OP(=O)(O)OC[C@H]2O[C@@H](n3ccc(=O)[nH]c3=O)[C@H](O)[C@@H]2O)O[C@H](CO)[C@H](O)[C@@H]1O` [UDP-GalNAc], for which the ΔTm in experiment [2] is ~ 2 °C.
Turning to `O=c1ccn([C@@H]2O[C@H](COP(=O)(O)OP(=O)(O)O[C@H]3OC[C@@H](O)[C@H](O)[C@H]3O)[C@@H](O)[C@H]2O)c(=O)[nH]1` [UDP-Xyl], the ΔTm in experiment [2] is ~ 2 °C.
The same measure, in the same setting: as for `O=c1ccn([C@@H]2O[C@H](COP(=O)(O)OP(=O)(O)O)[C@@H](O)[C@H]2O)c(=O)[nH]1` [UDP], the entry is “+ 11.2 °C”.
